Measured values taken from patent US20220168304A1, “METHODS FOR TREATING CYSTIC FIBROSIS” (CHILDREN'S HOSPITAL MEDICAL CENTER, priority 2017, published 2022).

Experiments:
human duodenal organoids = experiment: Fluid secretion by forskolin-induced swelling (FIS) of human duodenal organoids; type: cell-based; details: FIG. 3; 0.1 micromolar saracatinib; forskolin 10 μM, 120 min; FSK vs no FSK significant, p value of 0.01
Procedure: (§1) Mouse intestinal organoids were cultured as described previously (DALTON et al., “New model of cystic fibrosis transmembrane conductance regulator proposes active channel-lik ? Inf Model (2012) Vol. 52, pp. 1842-1853). Human duodenal crypt isolation and enteroid expansion was performed as described previously (<<https://www.jove.com/video/52483/establishment-human-epithelial-enteroids-colonoids-from-whole-tissue>>) with some adaptations. Briefly, fresh biopsy is rinsed in ice-cold Dulbecco's Phosphate buffered saline without Ca^2+ and Mg^2+ (DPBS, Gibco), mounted and immersed in DPBS in a silica gel coated petri-dish using minutien pins with the mucosal side facing up.
Mucosa is gently scraped with curved forceps to remove villi and debris followed by 3-4 washes with DPBS. Crypts were dissociated using 2 mM EDTA (30 min, 4° C. with gentle shaking) followed by gentle scraping of the mucosa. The crypt suspension was filtered through a 150 μm nylon mesh twice and pelleted at 50×g, 4° C. The crypt pellet was resuspended in matrigel matrix (200 to 500 crypts/50 μl matrigel per well of a 24 well plate). […]
Fluid Secretion by forskolin-induced swelling (FIS) of human duodenal organoids (A) representative images (bar=20 micrometers) and (B) quantitation of fluid secretion.

[1] = system: mouse intestinal organoids; experiment: Fluid secretion by forskolin-induced swelling (FIS) of mouse intestinal organoids; type: cell-based; details: FIG. 4; 0.1 micromolar saracatinib; forskolin 10 μM, 30 min; FSK vs no FSK significant, p value of 0.01
Procedure: as §1
Isolation of intestinal spheres and measurement of fluid secretion were performed as described previously (MOON et al., “Compartmentalized accumulation of cAMP near complexes of multidrug resistance protein 4 (MRP4) and cystic fibrosis transmembrane conductance regulator (CFTR) contributes to drug-induced diarrhea.” J Biol Chem (2015) Vol. 290, pp. 11246-11257). Day 1-4 intestinal organoids were treated with 0.1-10 μM of the test compound for 24 h before stimulation of CFTR function using forskolin (10 μM). […]
Fluid Secretion by forskolin-induced swelling (FIS) of mouse intestinal organoids (A) representative images (bar=20 micrometers) and (B) quantitation of fluid secretion.

For `CN1CCN(CCOc2cc(OC3CCOCC3)c3c(Nc4c(Cl)ccc5c4OCO5)ncnc3c2)CC1` [saracatinib, N-(5-chloro-1,3-benzodioxol-4-yl)-7-[2-(4-methyl-1-piperazinyl)ethoxy]-5-[(tetrahydro-2H-pyran-4-yl)oxy]-4-quinazolinamine], the “Fluid secretion (forskolin-induced swelling, FIS)” value (human duodenal organoids) was “fluid secretion occurs when saracatinib is added” and the “Fluid secretion (forskolin-induced swelling, FIS)” value [1] was “fluid secretion occurs when saracatinib is added”.
